Laboratory results from US20220089592A1, “IMIDAZO[1,2-A]PYRIDINYL DERIVATIVES AS IRAK4 INHIBITORS” (priority 2019, published 2022).

How the values were obtained:
IRAK4 [1] = target: T1, IRAK4 (Homo sapiens, UniProt Q9NWZ3); experiment: 2-hour 10 μM ATP Biochemical Assay (MesoScale Detection format; IRAK4 phosphorylation of biotin labeled IRAK1 activation loop peptide); conditions: IRAK4 MSD BIOCHEMICAL (10 μM ATP) IC50 (μM), 1 nM IRAK4, 2 hours
T1 sequence (Q9NWZ3 1-460): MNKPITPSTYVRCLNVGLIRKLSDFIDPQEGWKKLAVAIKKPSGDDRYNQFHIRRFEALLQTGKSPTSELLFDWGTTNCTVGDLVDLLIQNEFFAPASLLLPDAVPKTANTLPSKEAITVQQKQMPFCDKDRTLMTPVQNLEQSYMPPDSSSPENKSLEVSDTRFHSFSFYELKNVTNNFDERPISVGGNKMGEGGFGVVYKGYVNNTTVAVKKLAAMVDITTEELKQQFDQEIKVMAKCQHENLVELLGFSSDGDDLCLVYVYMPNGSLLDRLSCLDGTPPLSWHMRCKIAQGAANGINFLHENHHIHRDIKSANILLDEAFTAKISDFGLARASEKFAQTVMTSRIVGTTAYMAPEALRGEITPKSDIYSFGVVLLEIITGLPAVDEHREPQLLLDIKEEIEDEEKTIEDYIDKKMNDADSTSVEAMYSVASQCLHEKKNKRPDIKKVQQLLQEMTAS
Procedure, shortened: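 Kinase reaction run 2 h at 10 μM ATP with biotinylated IRAK1 activation-loop peptide, quenched with EDTA. Phospho-peptide captured on streptavidin MSD plates and detected with anti-phosphothreonine rabbit antibody plus Sulfo-Tag anti-rabbit electrochemiluminescence.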

IRAK4 [2] = target: T1, IRAK4; experiment: 2-hour 1 mM ATP IRAK4 Biochemical assay (as above, but with 100 pM IRAK4 and 1 mM ATP); conditions: IRAK4 MSD BIOCHEMICAL (1 mM ATP) IC50 (μM), 100 pM IRAK4, 2 hours
Procedure, shortened: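 Run with 100 pM IRAK4 and 1 mM ATP for 2 hours, quenched with EDTA pH 8. Phosphorylated biotinylated peptide captured on streptavidin MSD plates and detected with anti-phosphothreonine antibody plus Sulfo-Tag secondary by electrochemiluminescence.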

| IC50 (IRAK4 [1]) [µM] | IC50 (IRAK4 [2]) [µM] | SMILES |
| --- | --- | --- |
| 0.012 | 0.027 | CCOc1cc2nc(CC)cn2cc1NC(=O)c1ccn(C(F)F)n1 [Example 44, 1-(difluoromethyl)-N-(7-ethoxy-2-ethylimidazo[1,2-a]pyridin-6-yl)-1H-pyrazole-3-carboxamide] |
| 0.001 | 0.003 | CCOc1cc2nc(C3(OCC)CCOCC3)cn2cc1NC(=O)c1cccc(C(F)F)n1 [Example 91, 6-(difluoromethyl)-N-(7-ethoxy-2-(4-ethoxytetrahydro-2H-pyran-4-yl)imidazo[1,2-a]pyridin-6-yl)picolinamide] |
| 0.002 | 0.003 | CCOc1cc2nc(C(F)(F)CCOC)cn2cc1NC(=O)c1cccc(C(F)F)n1 [Example 149, N-(2-(1,1-difluoro-3-methoxypropyl)-7-ethoxyimidazo[1,2-a]pyridin-6-yl)-6-(difluoromethyl)picolinamide] |
| 0.005 | 0.016 | CCOc1cc2nc(C(C)(C)CO)cn2cc1NC(=O)c1cccc(C(F)F)n1 [Example 17, 6-(difluoromethyl)-N-(7-ethoxy-2-(1-hydroxy-2-methylpropan-2-yl)imidazo[1,2-a]pyridin-6-yl)picolinamide] |
| 0.003 | 0.015 | CCOCc1cn2cc(NC(=O)c3cccc(C(F)(F)F)n3)c(OCC)cc2n1 [Example 55, N-(7-ethoxy-2-(ethoxymethyl)imidazo[1,2-a]pyridin-6-yl)-6-(trifluoromethyl)picolinamide] |
| 0.006 | 0.005 | CCOc1cc2nc(C(C)(C)C#N)cn2cc1NC(=O)c1coc(C2CC2)n1 [Example 360, N-(2-(2-cyanopropan-2-yl)-7-ethoxyimidazo[1,2-a]pyridin-6-yl)-2-cyclopropyloxazole-4-carboxamide] |
| 0.001 | 0.005 | CCOc1nc2nc(CC3CCOC3)cn2cc1NC(=O)c1cccc(C(F)(F)F)n1 (centres unmarked) [Example 93, N-(7-ethoxy-2-((tetrahydrofuran-3-yl)methyl)imidazo[1,2-a]pyrimidin-6-yl)-6-(trifluoromethyl)picolinamide] |
| 0.001 | 0.002 | COc1cc(NC(=O)c2cccc(C(F)F)n2)cn2cc(C3CCOC(C)(C)C3)nc12 (centres unmarked) [Example 510, 6-(difluoromethyl)-N-(2-(2,2-dimethyltetrahydro-2H-pyran-4-yl)-8-methoxyimidazo[1,2-a]pyridin-6-yl)picolinamide 2,2,2-trifluoroacetate] |
| 0.001 | 0.001 | CCOc1cc2nc(C3CN(C4COC4)C3)cn2cc1NC(=O)c1cccc(C(F)F)n1 [Example 79, 6-(difluoromethyl)-N-(7-ethoxy-2-(1-(oxetan-3-yl)azetidin-3-yl)imidazo[1,2-a]pyridin-6-yl)picolinamide] |
| 0.001 | 0.005 | CCOc1cc2nc(C3CCOCC3)cn2cc1NC(=O)c1cccc(N(C)C)n1 [Example 237, 6-(dimethylamino)-N-(7-ethoxy-2-(tetrahydro-2H-pyran-4-yl)imidazo[1,2-a]pyridin-6-yl)picolinamide] |
| 0.001 | 0.001 | CCOc1cc2nc(C(F)C3CCOC3)cn2cc1NC(=O)c1cccc(C(F)(F)F)n1 (single isomer, unassigned) [Example 144] |
| 0.001 | 0.001 | CCOc1cc2nc(C3CN(C(C)=O)C3)cn2cc1NC(=O)c1cccc(C(F)(F)F)n1 [Example 68, N-(2-(1-acetylazetidin-3-yl)-7-ethoxyimidazo[1,2-a]pyridin-6-yl)-6-(trifluoromethyl)picolinamide] |
| 0.001 | 0.001 | CCOc1cc2nc(C3C[C@@H](C)O[C@@H](C)C3)cn2cc1NC(=O)c1cccc(C(F)(F)F)n1 (relative stereo) [Example 250, N-(2-((2R*,6S*)-2,6-dimethyltetrahydro-2H-pyran-4-yl)-7-ethoxyimidazo[1,2-a]pyridin-6-yl)-6-(trifluoromethyl)picolinamide] |
| 0.001 | 0.007 | CCOc1cc2nc(C3CCOCC3)cn2cc1NC(=O)c1csc(C(F)(F)F)n1 [Example 231, N-(7-ethoxy-2-(tetrahydro-2H-pyran-4-yl)imidazo[1,2-a]pyridin-6-yl)-2-(trifluoromethyl)thiazole-4-carboxamide] |
| 0.001 | 0.001 | CC(C#N)Oc1cc2nc(C3CCOCC3)cn2cc1NC(=O)c1cccc(C(F)F)n1 (centres unmarked) [Example 173, N-(7-(1-cyanoethoxy)-2-(tetrahydro-2H-pyran-4-yl)imidazo[1,2-a]pyridin-6-yl)-6-(difluoromethyl)picolinamide] |
| 0.011 | 0.049 | COCCCc1cn2cc(NC(=O)c3cccc(C(F)F)n3)ccc2n1 [Example 234, 6-(difluoromethyl)-N-(2-(3-methoxypropyl)imidazo[1,2-a]pyridin-6-yl)picolinamide] |
| 0.007 | 0.018 | CCOc1nc2nc(CC)cn2cc1NC(=O)c1cccc(C(F)F)n1 [Example 74, 6-(difluoromethyl)-N-(7-ethoxy-2-ethylimidazo[1,2-a]pyrimidin-6-yl)picolinamide] |
| 0.001 | 0.001 | CCOc1cc2nc(C3CCOCC3)cn2cc1NC(=O)c1cccc(C(C)(F)F)n1 [Example 227, 6-(1,1-difluoroethyl)-N-(7-ethoxy-2-(tetrahydro-2H-pyran-4-yl)imidazo[1,2-a]pyridin-6-yl)picolinamide] |
| 0.001 | 0.001 | CCOc1cc2nc(C34CC(C#N)(C3)C4)cn2cc1NC(=O)c1cccc(C(F)(F)F)n1 [Example 521, N-(2-(3-cyanobicyclo[1.1.1]pentan-1-yl)-7-ethoxyimidazo[1,2-a]pyridin-6-yl)-6-(trifluoromethyl)picolinamide 2,2,2-trifluoroacetate] |
| 0.002 | 0.004 | COc1cc(NC(=O)c2cccc(C(F)F)n2)cn2cc(C3CC4(CCOC4)C3)nc12 (centres unmarked) [Example 507, 6-(difluoromethyl)-N-(8-methoxy-2-(6-oxaspiro[3.4]octan-2-yl)imidazo[1,2-a]pyridin-6-yl)picolinamide] |
| 0.001 | 0.002 | CCOc1cc2nc(C34CC(C(F)F)(C3)C4)cn2cc1NC(=O)c1cccc(C(F)(F)F)n1 [Example 522, N-(2-(3-(difluoromethyl)bicyclo[1.1.1]pentan-1-yl)-7-ethoxyimidazo[1,2-a]pyridin-6-yl)-6-(trifluoromethyl)picolinamide 2,2,2-trifluoroacetate] |
| 0.001 | 0.003 | CCOc1cc2nc(C3CCN(C)C3=O)cn2cc1NC(=O)c1cccc(C(F)F)n1 (centres unmarked) [Example 156, 6-(difluoromethyl)-N-(7-ethoxy-2-(1-methyl-2-oxopyrrolidin-3-yl)imidazo[1,2-a]pyridin-6-yl)picolinamide] |
| 0.003 | 0.004 | CCOc1cc2nc(C3CCOCC3)cn2cc1NC(=O)c1cccc(C2CC2)n1 [Example 366, 6-cyclopropyl-N-(7-ethoxy-2-(tetrahydro-2H-pyran-4-yl)imidazo[1,2-a]pyridin-6-yl)picolinamide] |
| 0.001 | 0.001 | CCOc1cc2nc(C34CC(OC)(C3)C4)cn2cc1NC(=O)c1cccc(C(F)F)n1 [Example 153, 6-(difluoromethyl)-N-(7-ethoxy-2-(3-methoxybicyclo[1.1.1]pentan-1-yl)imidazo[1,2-a]pyridin-6-yl)picolinamide] |
| 0.001 | 0.003 | CCOc1nc2nc(CC3CCOC3)cn2cc1NC(=O)c1cccc(C(F)(F)F)n1 (single isomer, unassigned) [Example 95] |
